Like-named read-outs stand apart in the source and are kept apart here. Where no end group is shown, it is not given here.
Key:
[1] = test system: Glutamicibacter halophytocola; test: microbe, parasite or virus in culture; type: cell-based; conditions: 6 h
Procedure: (§1) All plates were cultivated aerobically.
(§2) Experiments were conducted in triplicate.

[2] = test system: Staphylococcus chromogenes; test: microbe, parasite or virus in culture; type: cell-based; conditions: 6 h
Procedure: as §1, §2

[3] = test system: Staphylococcus epidermidis; test: microbe, parasite or virus in culture; type: cell-based; conditions: 6 h
Procedure: as §1, §2

[4] = test system: Streptococcus uberis; test: microbe, parasite or virus in culture; type: cell-based; conditions: 6 h
Procedure: as §1, §2

[5] = test system: Corynebacterium simulans; test: microbe, parasite or virus in culture; type: cell-based; conditions: 6 h
Procedure: as §1, §2

[6] = test system: Staphylococcus xylosus; test: microbe, parasite or virus in culture; type: cell-based; conditions: 6 h
Procedure: as §1, §2

[7] = test system: bovine erythrocytes; test: Haemolytic activity; type: cell-based; conditions: OD 410 nm, repeated three times
Procedure: The experimental procedures were conducted in accordance with the guidelines approved by the Institutional Animal Care and Use Committee (IACUC) of Konkuk University, Seoul, Korea, and bovine blood was collected from a cow at a local farm using a BD Vacutainer® Sodium Heparin (BD Bioscience) to analyse haemolytic activity. Plasma was removed from the whole blood by centrifugation. Erythrocytes were washed thrice with phosphate-buffered saline (PBS, pH 7.4) and resuspended in PBS at a concentration of 2% (v/v). Subsequently, 100 µL of the erythrocyte suspension was added to each well of a 96-well microtiter plate. The plate contained an equal volume of the peptides in PBS with different concentrations of 10, 20, 40, 80, and 160 μg/mL. Triton-X 100 (1%) and PBS were used as positive and negative controls, respectively. Plates were incubated at 37 °C for 1 h. The release of haemoglobin into the supernatant was monitored by measuring the change in OD at 410 nm using a microplate reader (xMark™ spectrophotometer; Bio-Rad). Results from three independent experiments were pooled. Hemolysis was calculated using the formula: HemolyticPercentage(%)=100×(ODpeptide-ODnegative)/(ODpositive-ODnegative)
All experiments were carried out in triplicate.

[8] = test system: eight standard bacterial strains; type: cell-based; conditions: all eight standard strains; range stated for the three peptides
Procedure: (§3) The standard bacterial strains used for antimicrobial activity assays include Staphylococcus aureus ATCC (American Type Culture Collection, Manassas, VA, USA) 6538, Bacillus cereus ATCC 10876, Enterococcus faecalis ATCC 29212, Streptococcus […] 27956, Streptococcus dysgalactiae ATCC 27957, Streptococcus equi subsp. zooepidemicus ATCC 43079, Escherichia coli ATCC 25922, and Pseudomonas aeruginosa ATCC 27853. Most bacterial strains were cultured in LB medium except for E. faecalis and streptococci, which were cultivated in brain heart infusion (BHI) broth (BD Bioscience). […] Experiments were conducted in triplicate.

[9] = test system: HaCaT cells; test: Cytotoxicity, WST-1 cell viability; conditions: 24 h, 37 °C, repeated three times
[10] = test system: E. coli (ATCC 25922); type: cell-based, Escherichia coli
Procedure: as §2
(§4) The MICs against E. coli (ATCC 25922) for cc-CATH3, ML-CATH, and PD-CATH in 150 mM NaCl and different pH (pH 5, 6, and 7) that were adjusted using acetic acid (Sigma Aldrich) were determined as described above. For serum stability assay, each AMP at four different concentrations was dissolved in 50% (v/v) FBS (Hyclone™) and incubated at 37 °C for 0, 60, and 120 min, respectively. As described in a previous study, ΔHg-CATH was used as a control for serum sensitivity. The antimicrobial activity of cc-CATH3, ML-CATH, and PD-CATH against E. coli was assessed for each condition as above. All experiments were conducted in triplicate.

[11] = test system: field isolates from milk with high SCCs; conditions: all field isolates except A. hydrophila; range stated for the three peptides
Procedure: The minimum inhibitory concentration (MIC) was determined by following the manufacturer’s protocol and Clinical and Laboratory Standards Institute (CLSI) guidelines (2018) using a colourimetric method specified by the Microbial Viability Assay Kit-WST (Dojindo, Kumamoto, Japan). Four colonies of each bacterium were inoculated into 5 mL of LB medium and incubated at 37 °C for 4–6 h. The cells were then washed twice with sterile saline (0.9% NaCl) and seeded into a single well of a 96-well plate at a density of 1.5 × 10^5 cells/well, adjusting by McFarland standard 0.5. Subsequently, 180 µL/well of fresh MH broth (BD Bioscience) was added to the plate. Ampicillin, chloramphenicol, and gentamicin sulfate were used as controls for antimicrobial activity.
Different concentrations of each peptide and reference antibiotics (up to 40 µg/mL) were serially diluted in 10 µL of MH broth and added to each well. The plate was incubated at 37 °C for 6 h, using BHI broth to culture slow-growing fastidious strains, including E. faecalis, A. hydrophila, C. simulans, G. halophytocola, and streptococci. Cation-adjusted Mueller Hinton II broth (CAMHB) was employed to cultivate P. aeruginosa. Afterwards, 10 µL of the colouring reagent was added, and cells were incubated at 37 °C for 2 h. UV absorbance was measured for each well at 450 nm using a microplate spectrophotometer (xMark spectrophotometer; Bio-Rad, Hercules, CA, USA). The MIC values were determined when the absorbance difference between treatments and blanks (media and colouring reagent only) decreased to < 0.05. Experiments were conducted in triplicate.

[12] = test system: PK15 cells; test: Cytotoxicity, WST-1 cell viability; conditions: 24 h, 37 °C, repeated three times
Procedure: (§5) Human keratinocytes (HaCaT) and pig kidney fibroblast cells (PK15, ATCC CCL-33) were cultured in Dulbecco’s modified Eagle’s medium (DMEM; Hyclone™, Logan, UT, USA) and supplemented with 10% foetal bovine serum (FBS; Hyclone™, Logan, UT, USA), 1% penicillin–streptomycin (Hyclone™) at 37 °C, and 5% CO2 up to 80% confluence. Cell substratum adhesion was disrupted using Accutase (Innovative Cell Technologies, San Diego, CA, USA). A total of 4 × 10^4 cells were incubated for 24 h at 37 °C and 5% CO2 in each well of a 96-well plate containing 64 and 160 µg/mL of each peptide.
(§6) A positive control for complete cell lysis was established using Triton-X100 (1%), and untreated cells were used as the negative control. After incubation, the medium was removed from the wells and replaced with 10 µL of colouring solution (Cell Proliferation Reagent WST-1™) and 100 µL of DMEM (Hyclone™), per the manufacturer’s protocol. Each well absorbance was measured at 440 nm (peptide-treated and control) and 650 nm (background). These measurements were recorded as the optical density (OD) using a microplate reader (xMark™ spectrophotometer; Bio-Rad, CA, USA). Cell viability was calculated using the following equation: CellViability(%)=100×(ODpeptide-ODbackground)/(ODnegative-ODbackground)
(§7) All experiments were performed in triplicate.

[13] = test system: Streptococcus equi subsp. zooepidemicus ATCC 43079; test: microbe, parasite or virus in culture; type: cell-based; conditions: ATCC 43079, 6 h
Procedure: as §3

[14] = test system: Staphylococcus aureus ATCC 6538; test: microbe, parasite or virus in culture; type: cell-based; conditions: ATCC 6538, 6 h
Procedure: as §3

[15] = test system: Enterococcus faecalis ATCC 29212; test: microbe, parasite or virus in culture; type: cell-based; conditions: ATCC 29212, 6 h
Procedure: as §3

[16] = test system: Streptococcus agalactiae ATCC 27956; test: microbe, parasite or virus in culture; type: cell-based; conditions: ATCC 27956, 6 h
Procedure: as §3

[17] = test system: Pseudomonas aeruginosa ATCC 27853; test: microbe, parasite or virus in culture; type: cell-based; conditions: ATCC 27853, 6 h
Procedure: as §3

[18] = test system: Bacillus cereus ATCC 10876; test: microbe, parasite or virus in culture; type: cell-based; conditions: ATCC 10876, 6 h
Procedure: as §3

[19] = test system: Streptococcus dysgalactiae ATCC 27957; test: microbe, parasite or virus in culture; type: cell-based; conditions: ATCC 27957, 6 h
Procedure: as §3

[20] = test system: E. coli (ATCC 25922); type: in vitro ADME, Escherichia coli
Procedure: as §4
Figure 2 Changes in the antibacterial activity of cc-CATH3, ML-CATH, and PD-CATH after incubation with naïve serum. cc-CATH3, ML-CATH, and PD-CATH peptides were incubated in 50% (v/v) FBS each for 0, 60, and 120 min before applying to antimicrobial activity assay against E. coli (ATCC 25922). The antimicrobial activity was determined by measuring bacterial growth at OD 450 nm. The X and Y axes indicate peptide concentration and absorbance at 450 nm, respectively. Samples containing 50% FBS in the absence of the peptides indicate a control for bacterial growth without AMP treatments. The antimicrobial activity of cc-CATH3 (A), ML-CATH (B), and PD-CATH (C) after the treatment of FBS-incubated AMPs was shown.

[21] = test system: PK15 and HaCaT cells
Procedure: as §5, §6, §7

[22] = test system: all bacterial strains in the panel and field isolates from milk; type: cell-based; conditions: against all bacterial strains in the panel and field isolates from milk
Procedure: The standard bacterial strains used for antimicrobial activity assays include Staphylococcus aureus ATCC (American Type Culture Collection, Manassas, VA, USA) 6538, Bacillus cereus ATCC 10876, Enterococcus faecalis ATCC 29212, Streptococcus agalactiae ATCC 27956, Streptococcus dysgalactiae ATCC 27957, Streptococcus equi subsp. zooepidemicus ATCC 43079, Escherichia coli ATCC 25922, and Pseudomonas aeruginosa ATCC 27853. Most bacterial strains were cultured in LB medium except for E. faecalis and streptococci, which were cultivated in brain heart infusion (BHI) broth (BD Bioscience).
as §1, §2

[23] = test system: PK15 cells
Procedure: as §5, §6, §7

[24] = test system: HaCaT cells
Procedure: as §5, §6, §7

[25] = test system: Aeromonas hydrophila; test: microbe, parasite or virus in culture; type: cell-based; conditions: 6 h
Procedure: as §1, §2

[26] = 10 μg/mL, 2% (v/v) erythrocytes in PBS pH 7.4, 37 °C 1 h, mean ± SD
[27] = 20 μg/mL, 2% erythrocytes in PBS pH 7.4, 37 °C 1 h
[28] = 40 μg/mL, 2% erythrocytes in PBS pH 7.4, 37 °C 1 h
[29] = 80 μg/mL, 2% erythrocytes in PBS pH 7.4, 37 °C 1 h

Substance	Minimal inhibitory concentration, Glutamicibacter halophytocola [1]	Minimal inhibitory concentration, Staphylococcus chromogenes [2]	Minimal inhibitory concentration, Staphylococcus epidermidis [3]	Minimal inhibitory concentration, Streptococcus uberis [4]	Minimal inhibitory concentration, Corynebacterium simulans [5]	Minimal inhibitory concentration, Staphylococcus xylosus [6]	Haemolytic activity against bovine erythrocytes [7, 26] [%]	Haemolytic activity against bovine erythrocytes [7, 27] [%]	Haemolytic activity against bovine erythrocytes [7, 28] [%]	Haemolytic activity against bovine erythrocytes [7, 29] [%]	MICs, range over all bacterial species in the test panel [8] [µg/mL]	Cell viability ± SD, HaCaT ([9]; 64 μg/mL peptide) [%]	Cell viability ± SD, HaCaT ([9]; 160 μg/mL peptide) [%]	MICs, range over field isolates [11] [µg/mL]	Cell viability ± SD, PK15 ([12]; 64 μg/mL peptide) [%]	Cell viability ± SD, PK15 ([12]; 160 μg/mL peptide) [%]	Minimal inhibitory concentration, Streptococcus equi subsp. zooepidemicus [13]	Minimal inhibitory concentration, Staphylococcus aureus [14]	Minimal inhibitory concentration, Enterococcus faecalis [15]	Minimal inhibitory concentration, Streptococcus agalactiae [16]	further results
LNPLIKAGIFILKHRRPIGRGIEITGRGIKKFFSK [ML-CATH]	2 (0.5) μg/mL	2 (0.5) μg/mL	2 (0.5) μg/mL	3 (0.8) μg/mL	1 (0.3) μg/mL	2 (0.5) μg/mL	5.8 ± 0.4	6.4 ± 0.8	7.0 ± 0.8	7.7 ± 0.2	2 to 42	99.7 ± 0.9	98.0 ± 1.5	0.8 to 5	96.2 ± 0.4	38.0 ± 2.2	9 (2.3) μg/mL	2 (0.5) μg/mL	5 (1.3) μg/mL	8 (2.0) μg/mL	Haemolytic activity against bovine erythrocytes ([7]; 160 μg/mL, 2% erythrocytes in PBS pH 7.4, 37 °C 1 h): 11.8 ± 4.5%; MIC against E. coli in more acidic conditions ([10]; ATCC 25922, pH 5): 2 µg/mL; Minimal inhibitory concentration, Pseudomonas aeruginosa [17]: 42 (10.6) μg/mL; Minimal inhibitory concentration, Bacillus cereus [18]: 3 (0.8) μg/mL; Minimal inhibitory concentration, Streptococcus dysgalactiae [19]: 14 (3.5) μg/mL; antibacterial activity after incubation with serum [20]: remained unaffected under all the tested conditions; cell viability of PK15 and HaCaT [21]: 91.1 ± 1.8% to 100.6 ± 0.4; minimum inhibitory concentration, range over strains [22]: 0.2 to 10.3 µM
Triton X-100 [Triton X-100 (1%)]	–	–	–	–	–	–	–	–	–	–	–	–	–	–	–	–	–	–	–	–	Cell viability ± SD, PK15 [23]: 13.3 ± 0.1%; Cell viability ± SD, HaCaT [24]: 13.0 ± 0.4%
ILGPALRIGGRIAGRIAGKLIGDAINRHRERNRQRRG [PD-CATH]	1 µg/mL	4 (1.0) μg/mL	3 (0.7) μg/mL	5 (1.2) μg/mL	1 µg/mL	3 (0.7) μg/mL	0.4 ± 0.2	0.7 ± 0.4	2.9 ± 0.2	3.5 ± 0.2	2 to 42	100.2 ± 0.2	11.4 ± 0.5	0.8 to 5	43.6 ± 1.7	7.4 ± 0.2	17 (4.2) μg/mL	3 (0.7) μg/mL	6 (1.5) μg/mL	8 (2.0) μg/mL	Minimal inhibitory concentration, Pseudomonas aeruginosa [17]: 42 (10.3) μg/mL; Minimal inhibitory concentration, Bacillus cereus [18]: 6 (1.5) μg/mL; Minimal inhibitory concentration, Streptococcus dysgalactiae [19]: 18 (4.4) μg/mL; antibacterial activity after incubation with serum [20]: remained unaffected under all the tested conditions; minimum inhibitory concentration, range over strains [22]: 0.2 to 10.3 µM
RVRRFWPLVPVAINTVAAGINLYKAIRRK [cc-CATH3]	2 (0.6) μg/mL	3 (0.9) μg/mL	2 (0.6) μg/mL	4 (1.2) μg/mL	0.8 (0.2) μg/mL	2 (0.6) μg/mL	0.0 ± 0.1	0.0 ± 0.1	0.4 ± 0.2	0.8 ± 0.1	2 to 42	100.6 ± 0.4	90.1 ± 4.8	0.8 to 5	91.1 ± 1.8	32.7 ± 3.5	5 (1.5) μg/mL	2 (0.6) μg/mL	5 (1.5) μg/mL	4 (1.28) μg/mL	Minimal inhibitory concentration, Aeromonas hydrophila [25]: > 160 (47.4) μg/mL; Minimal inhibitory concentration against E. coli, 150 mM NaCl ([10]; ATCC 25922): 1.6 µM; Minimal inhibitory concentration, Pseudomonas aeruginosa [17]: 4 (1.28) μg/mL; Minimal inhibitory concentration, Bacillus cereus [18]: 4 (1.28) μg/mL; Minimal inhibitory concentration, Streptococcus dysgalactiae [19]: 7 (2.0) μg/mL; antibacterial activity after incubation with serum [20]: significantly affected in concentrations lower than 3 × MIC; cell viability of PK15 and HaCaT [21]: 91.1 ± 1.8% to 100.6 ± 0.4; minimum inhibitory concentration, range over strains [22]: 0.2 to 10.3 µM
